Data taken from patent US8530491B2, “Antimalarial compounds with flexible side-chains” (Medicines for Malaria Venture (MMV), priority 2007, dated 2013).
Values after ≈ are worked out from the molar mass of the structure shown. Where two headings read alike, the source gives them in different places.

What was measured:
[1] = tested on: P. falciparum TM4/8.2 (wild type); test: In vitro anti-plasmodial activity, [3H]-hypoxanthine incorporation; format: cell-based, Plasmodium falciparum
[2] = molecular target: T1, Pf DHFR N51I + C59R + S108N + I164L (Plasmodium falciparum, UniProt A7UD81, C59R/I164L/N51I/S108N); test: biochemical
T1 construct: made in house; host or cells: E. coli BL21(DE3)pLysS

Pf DHFR WT = molecular target: T2, Pf DHFR WT (Plasmodium falciparum, UniProt A7UD81); test: Pf DHFR enzyme inhibition (Ki), wild type; format: biochemical
T2 construct: made in house; host or cells: E. coli BL21(DE3)pLysS

[3] = Cytotoxicity in mammalian cells; format: cell-based; conditions: African green monkey, Vero cells (African green monkey kidney epithelial cells)
P. chabaudi AS [4] = test: Standard 4-day Peters' test against P. chabaudi AS in mice; format: in vivo, Plasmodium chabaudi; conditions: for ED50 / ED90: Plasmodium chabaudi, 96 h, oral, 4-day Peters' test; for ED50: 50% reduction in parasitaemia; for ED90: 90% reduction in parasitaemia; for ED90 P. chabaudi AS, oral: oral administration, mice (Table 1)
Description: Briefly, 20 gr CD1 male mice (Charles Rivers, UK) were kept in specific pathogen-free conditions and fed ad libitum. For oral administration, compounds were dissolved in standard suspending formula (SSV) [0.5% sodium carboxymethylcellulose, 0.5% benzyl alcohol, 0.4% Tween 80, 0.9% NaCl (all Sigma)] and for intraperitoneal or subcutaneous administration compounds were dissolved in 0.5% w/v hydroxypropylmethylcellulose, 0.4% v/v Tween 80, 0.5% V/v benzyl alcohol in de-ionised water]. Mice were infected intravenously with 4×10^6 infected red cells and treated orally (p.o.) with 0.2 ml of a solution of the test compounds two hours (day 0) and on days 1, 2 and 3 post-infection. Parasitaemia was determined by microscopic examination of Giemsa stained blood films taken on day 4. Microscopic counts of blood films from each mouse were processed using GraphPad Prism 4 (GraphPad Software, Inc., CA, USA) and expressed as percentages of inhibition from the arithmetic mean parasitaemias of each group in relation to the untreated group. Compounds were tested in an initial screening at 30 mg/kg/day against P. chabaudi AS (non-resistant) over the period described and percentages of inhibition calculated in relation to the untreated controls. Compounds giving 80% inhibition or above were then tested in the same model under a range of doses over the period described in order to obtain dose response curves and calculate their ED50 and ED90 values. […] From the ED90 values is clear that a number of compounds have exquisite activity in this model and are also tested in P. chabaudi ASP and P. berghei ANKA.

[5] = Pharmacokinetics of P218 / pro-drug P195 in male Swiss outbred mice; format: in vivo
Description: In a separate study, the oral bioavailability of P195, the ester pro-drug of P218 which contains a carboxylic acid side chain was investigated in mice. Male Swiss outbred mice were administered P218 (the free acid) intravenously by bolus tail vein injection at a nominal dose of 5 mg/kg and P195 (the ester pro-drug) orally by gavage at a nominal dose of 20 mg/kg. […] Blood sampling was conducted by cardiac puncture with a single sample per mouse, and two mice per time point over 16 hours post dosing. Blood samples were separated and plasma analyzed by LCMS as described above. The plasma concentration versus time profiles for P218 following IV administration of P218 and following oral administration of the pro-drug P195 are shown in FIG. 9. Plasma concentrations of P218 remained above the lower limit of quantitation (LLQ=0.0014 μM) for 7.5 h following IV administration.

[6] = Oral bioavailability and pharmacokinetics in male Sprague Dawley rats; format: in vivo; conditions: for Oral BA: i.v. and oral dosing; for Vd / clearance / half-life: rat, plasma; for Vd: intravenous; for clearance / half-life: iv, i.v. dosing; for clearance: read-out: i.v. CL(plasma); for half-life: read-out: i.v. t1/2 (converted)
Description: Rats had free access to water throughout the pre- and post-dose sampling period, and access to food was re-instated 4 hours post-dosing. Test compounds were administered intravenously as a 5 minute constant rate infusion (1.0 mL per rat) and orally by gavage (1.0 mL per rat). The IV formulations were typically buffered aqueous solutions containing a co-solvent if required for solubilization. The oral formulations were prepared as suspensions in hydroxypropylmethyl cellulose or carboxymethyl cellulose, each with the addition of Tween 80 and benzyl alcohol. Samples of arterial blood and total urine were collected up to 24 hours post-dose. Arterial blood was collected directly into borosilicate vials (at 4° C.) containing heparin, a protease inhibitor cocktail, potassium fluoride, and EDTA to minimise the potential for ex vivo degradation of the test compound in blood/plasma samples. Once collected, blood samples were centrifuged, supernatant plasma was removed and stored at −20° C., and plasma concentrations of test compound were determined by LCMS.

E. coli = test: Antibacterial activity, minimal inhibitory concentration on agar plates; format: cell-based; conditions: Escherichia coli; complete inhibition of growth on agar plates
S. aureus = test: as above; format: cell-based; conditions: Staphylococcus aureus; complete inhibition of growth on agar plates
[7] = tested on: P. falciparum Resistant mutant; test: Anti-malarial activity against P. falciparum in vitro, resistant mutant (Table 1); format: cell-based, Plasmodium falciparum; conditions: read-out: IC50 against P. falciparum in vitro, Resistant mutant
P. chabaudi AS [8] = test: Standard 4-day Peters' test against P. chabaudi AS in mice; format: in vivo, Plasmodium chabaudi; conditions: s.c. administration, mice (Table 1)
[9] = rat, in vivo
P. falciparum Wild Type = test: Anti-malarial activity against P. falciparum in vitro, wild type (Table 1); format: cell-based, Plasmodium falciparum
[10] = Plasmodium falciparum, read-out: IC50-P. falciparum TM4/8.2 (WT), TM4/8.2

T1 sequence (A7UD81 whole entry N51I/C59R/S108N/I164L): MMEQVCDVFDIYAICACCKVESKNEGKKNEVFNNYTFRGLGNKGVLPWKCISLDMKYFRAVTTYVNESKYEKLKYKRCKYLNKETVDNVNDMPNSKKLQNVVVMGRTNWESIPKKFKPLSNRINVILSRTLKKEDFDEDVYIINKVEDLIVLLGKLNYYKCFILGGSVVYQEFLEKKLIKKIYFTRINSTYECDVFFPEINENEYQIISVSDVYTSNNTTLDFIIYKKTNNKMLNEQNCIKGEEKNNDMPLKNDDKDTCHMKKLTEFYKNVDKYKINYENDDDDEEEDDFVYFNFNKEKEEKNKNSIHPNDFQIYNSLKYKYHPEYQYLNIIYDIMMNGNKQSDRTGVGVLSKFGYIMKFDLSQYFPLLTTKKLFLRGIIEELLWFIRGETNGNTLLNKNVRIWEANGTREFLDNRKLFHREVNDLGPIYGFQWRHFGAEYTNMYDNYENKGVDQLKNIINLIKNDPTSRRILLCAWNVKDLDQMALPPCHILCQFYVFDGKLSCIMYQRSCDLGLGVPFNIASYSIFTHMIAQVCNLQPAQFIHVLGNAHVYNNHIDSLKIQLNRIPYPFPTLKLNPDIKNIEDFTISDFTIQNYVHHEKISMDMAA
T2 sequence (A7UD81 1-608): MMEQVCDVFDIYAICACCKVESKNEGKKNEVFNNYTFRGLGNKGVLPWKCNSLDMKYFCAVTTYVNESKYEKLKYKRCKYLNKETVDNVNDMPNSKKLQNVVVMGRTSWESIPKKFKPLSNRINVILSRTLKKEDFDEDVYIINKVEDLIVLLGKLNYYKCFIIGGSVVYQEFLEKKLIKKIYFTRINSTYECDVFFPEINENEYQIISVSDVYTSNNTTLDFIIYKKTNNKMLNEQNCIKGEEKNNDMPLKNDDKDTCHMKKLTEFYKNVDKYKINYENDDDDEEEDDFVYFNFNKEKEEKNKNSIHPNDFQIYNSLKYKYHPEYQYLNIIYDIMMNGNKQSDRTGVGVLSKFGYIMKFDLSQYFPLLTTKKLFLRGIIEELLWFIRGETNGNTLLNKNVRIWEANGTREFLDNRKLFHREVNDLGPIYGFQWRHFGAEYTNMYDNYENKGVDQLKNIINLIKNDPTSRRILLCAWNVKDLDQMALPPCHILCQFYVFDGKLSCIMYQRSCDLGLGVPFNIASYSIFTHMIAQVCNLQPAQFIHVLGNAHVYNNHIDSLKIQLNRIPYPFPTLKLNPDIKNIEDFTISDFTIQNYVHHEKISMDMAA

SMILES | IC50 [1, 10] [nM] | Ki [2] [nM] | Ki (Pf DHFR WT) [nM] | IC50 [3] [nM] | ED50 (P. chabaudi AS [4]) [mg/kg] | ED90 (P. chabaudi AS [4]) [mg/kg] | MIC (E. coli) [µM] | MIC (S. aureus) [µM] | also measured
CCc1nc(N)nc(N)c1OCCCOc1cc(C)nc2ccc(OCCCC(=O)O)cc12 [Compound P169, 2,4-diamino-6-ethyl-5-(3-(6-(3-carboxypropoxy)-2-methylquinolin-4-yloxy)propoxy)pyrimidine] | 0.22 ± 0.06 | 0.36 ± 0.01 | 0.15 ± 0.04 | 420 | > 29 | > 29 | – | – | IC50 ([1]; read-out: IC50-P. falciparum TM4/8.2 (WT), TM4/8.2): 0.3 ± 0.1 nM
CCOC(=O)CCCOc1ccccc1OCCCOc1c(N)nc(N)nc1CC [Compound P217, 2,4-diamino-6-ethyl-5-(3-(2-(3-ethoxycarbonylpropoxy)phenoxy)propoxy)pyrimidine] | 4 | 3.3 ± 0.52 | 0.69 ± 0.1 | 5330 | < 0.63 | < 0.63 | – | – | –
CCOC(=O)CCCOc1ccc2nc(C)cc(OCCCOc3c(N)nc(N)nc3CC)c2c1 [Compound P219, 2,4-diamino-6-ethyl-5-(3-(6-(3-ethoxycarbonylpropoxy)-2-methylquinolin-4-yloxy)propoxy)pyrimidine] | < 10 | 1.25 ± 0.22 | 0.52 ± 0.08 | – | > 5 | > 5 | – | – | –
CCN(CC)CCCC(C)Nc1ccnc2cc(Cl)ccc12 (stereo not drawn) [Chloroquine, chloroquine, reference compound] | – | – | – | – | – | – | – | – | IC50 ([1]; Plasmodium falciparum, read-out: IC50-P. falciparum TM4/8.2 (WT)): 27 nM
C[C@H]1[C@@H](O)O[C@@H]2O[C@@]3(C)CC[C@H]4[C@H](C)CC[C@@H]1[C@@]24OO3 [Dihydroartemisinin, reference compound] | – | – | – | – | – | – | – | – | IC50 ([1]; Plasmodium falciparum, read-out: IC50-P. falciparum TM4/8.2 (WT), TM4/8.2, listed as printed in nM): 1.69 ± 0.39 nM
CCc1nc(N)nc(N)c1OCCCOc1ccccc1CCC(=O)O [Compound P218, 2,4-diamino-6-ethyl-5-(3-(2-(2-carboxyethyl)phenoxy)propoxy)pyrimidine] | 6 | 0.54 ± 0.12 | 0.43 ± 0.07 | > 10000 | < 0.63 | < 0.63 | – | – | time plasma concentration of P218 remained above LLQ following oral administration of ester prodrug ([5]; P195 oral 20 mg/kg, mice, LLQ=0.0014 μM): 16 h; time plasma concentrations of P218 remained above LLQ following IV administration ([5]; P218 IV 5 mg/kg, mice, LLQ=0.0014 μM): 7.5 h; bioavailability ([5]; male, Swiss outbred, mouse, plasma, oral, 20 mg/kg): ~50%
CCc1nc(N)nc(N)c1OCCCOc1cc(C)nc2ccccc12 [Compound P154, 2,4-diamino-6-ethyl-5-(3-(2-methylquinolin-4-yloxy)propoxy)pyrimidine] | 2 ± 0.8 | 4.8 ± 0.36 | 1.29 ± 0.14 | 94 | 0.006 | 0.043 | 10 to 50 (≈ 3.53 to 17.7 µg/mL) | > 50 | Oral BA [6]: 9.3 % of dose; Vd [6]: 8.8 L/kg; clearance [6]: 84.1 mL/min/kg; half-life [6]: 3.2 h
CC1(C)N=C(N)N=C(N)N1OCCCOc1cc(Cl)c(Cl)cc1Cl [WR99210] | – | – | – | – | – | – | – | – | IC50 ([7]; resistant mutant): 18 nM; ED90 P. chabaudi AS, s.c. (P. chabaudi AS [8]): 1.1 mg/kg; Oral BA in rats [9]: <1%; ED90 P. chabaudi AS, oral (P. chabaudi AS [4]): 74.2 mg/kg; IC50 (P. falciparum Wild Type; wild type): 0.6 nM
CCOC(=O)CCc1ccccc1OCCCOc1c(N)nc(N)nc1CC [Compound P195, 2,4-diamino-6-ethyl-5-(3-(2-(2-ethoxycarbonylethyl)phenoxy)propoxy)pyrimidine] | 2.5 ± 0.7 | 1.88 ± 0.13 | 0.26 ± 0.02 | 1250 | 0.21 | 0.69 | – | – | plasma concentrations of the pro-drug P195 ([5]; oral P195 20 mg/kg, all time points, below lower limit of quantitation): < 1.4 nM
COc1cc(Cc2cnc(N)nc2N)cc(OC)c1OC [Trimethoprim, trimethoprim, reference compound] | – | – | – | – | – | – | 1 to 10 (≈ 0.29 to 2.9 µg/mL) | 1 to 10 (≈ 0.29 to 2.9 µg/mL) | –
CC1(C)N=C(N)N=C(N)N1c1ccc(Cl)cc1 [Cycloguanil, cycloguanil] | – | – | – | – | – | – | – | – | IC50 ([7]; Plasmodium falciparum): > 100000 nM; ED90 P. chabaudi AS, s.c. (P. chabaudi AS [8]): 3.7 mg/kg; Oral BA in rats [9]: 59.3%; ED90 P. chabaudi AS, oral (P. chabaudi AS [4]): 6.2 mg/kg; IC50 (P. falciparum Wild Type; Plasmodium falciparum): 37 nM
CCc1nc(N)nc(N)c1OCCCOc1cc(C)nc2cc(F)ccc12 [Compound P157, 2,4-diamino-6-ethyl-5-(3-(7-fluoro-2-methylquinolin-4-yloxy)propoxy)pyrimidine] | 2.4 ± 0.7 | 3.95 ± 0.06 | 1.26 ± 0.24 | 100 | 0.008 | 0.012 | > 25 | > 25 | Oral BA [6]: 25.5 % of dose; Vd [6]: 15.2 L/kg; clearance [6]: 74.7 mL/min/kg; half-life [6]: 17.6 h
CCc1nc(N)nc(N)c1OCCCOc1ccnc2ccc(F)cc12 [Compound P153, 2,4-diamino-6-ethyl-5-(3-(6-fluoro-quinolin-4-yloxy)propoxy)pyrimidine] | 0.25 ± 0.1 | 3.41 ± 0.27 | 1.41 ± 0.13 | 37 | 0.006 | 0.013 | 10 to 50 (≈ 3.57 to 17.9 µg/mL) | 10 to 50 (≈ 3.57 to 17.9 µg/mL) | Oral BA [6]: 26 % of dose; Vd [6]: 17.3 L/kg; clearance [6]: 69.6 mL/min/kg; half-life [6]: 15.7 h
